# Measured values as given in patent US12129237B2, “Substituted diaminocarboxamide and diaminocarbonitrile pyrimidines, compositions thereof, and methods of treatment therewith” (SIGNAL PHARMACEUTICALS, LLC, priority 2011, dated 2024).
# Molecular target: T1, JNK1 (Homo sapiens, UniProt P45983)
# T1 construct: purchased Carna Biosciences
# Assay: JNK1 biochemical assays (one or more of: time resolved fluorescence, Z'-LYTE Cascade, radioactive)
# Details: Table 2; JNK1 IC50 activity level; read-out: Act. Level
# T1 sequence (P45983 whole entry): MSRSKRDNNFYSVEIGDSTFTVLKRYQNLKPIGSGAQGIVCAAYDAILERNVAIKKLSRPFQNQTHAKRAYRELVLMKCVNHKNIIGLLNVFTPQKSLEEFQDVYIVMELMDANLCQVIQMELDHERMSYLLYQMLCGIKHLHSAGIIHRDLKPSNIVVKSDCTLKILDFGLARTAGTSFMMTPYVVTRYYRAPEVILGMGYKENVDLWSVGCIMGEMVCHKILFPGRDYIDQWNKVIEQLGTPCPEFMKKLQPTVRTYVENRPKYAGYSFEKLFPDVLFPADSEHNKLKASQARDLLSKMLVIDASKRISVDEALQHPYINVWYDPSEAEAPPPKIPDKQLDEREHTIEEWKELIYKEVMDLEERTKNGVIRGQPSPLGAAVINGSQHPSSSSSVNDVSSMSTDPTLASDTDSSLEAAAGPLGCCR
row,Structure (SMILES),IC50 [nM]
1,"C[C@H](Nc1ncc(C(N)=O)c(N[C@@H]2CCC[C@H](O)C2)n1)c1ccc(F)cc1 [Example B-90, 2-((S)-1-(4-fluorophenyl)ethylamino)-4-((1R,3S)-3-hydroxycyclohexylamino)pyrimidine-5-carboxamide]",1000 to 10000
2,"CC(C)Nc1nc(N[C@H]2CCc3cnccc3C2)ncc1C(N)=O [Example B-91, (S)-4-(isopropylamino)-2-(5,6,7,8-tetrahydroisoquinolin-6-ylamino)pyrimidine-5-carboxamide]",200 to 800
3,"NC(=O)c1cnc(N[C@H]2CCc3ncccc3C2)nc1N[C@@H]1CCCC[C@H](O)C1 [Example B-97, 4-((1R,3S)-3-hydroxycycloheptylamino)-2-((S)-5,6,7,8-tetrahydroquinolin-6-ylamino)pyrimidine-5-carboxamide]",< 200
4,"NC(=O)c1cnc(N[C@@H]2CCc3ncccc3C2)nc1N[C@@H]1CCCC[C@H](O)C1 [Example B-98, 4-((1R,3S)-3-hydroxycycloheptylamino)-2-((R)-5,6,7,8-tetrahydroquinolin-6-ylamino)pyrimidine-5-carboxamide]",< 200
5,"CC1(C)CCC(Nc2ncc(C(N)=O)c(N[C@@H]3CCC[C@H](O)C3)n2)c2ccccc21 (stereo partly drawn) [Example B-99, 2-(4,4-dimethyl-1,2,3,4-tetrahydronaphthalen-1-ylamino)-4-((1R,3S)-3-hydroxycyclohexylamino)pyrimidine-5-carboxamide]",200 to 800
6,"C[C@]1(O)CCC[C@@H](Nc2nc(N[C@@H]3CCc4ncccc4C3)ncc2C(N)=O)C1 [Example B-101, 4-((1R,3S)-3-hydroxy-3-methylcyclohexylamino)-2-((R)-5,6,7,8-tetrahydroquinolin-6-ylamino)pyrimidine-5-carboxamide]",< 200

# Further lines, results first:
row,IC50 [nM],Structure (SMILES)
1,< 200,"NC(=O)c1cnc(N[C@H]2CCc3cccnc3C2)nc1N[C@@H]1CCC[C@H](O)C1 [Example B-87, 4-((1R,3S)-3-hydroxycyclohexylamino)-2-((S)-5,6,7,8-tetrahydroquinolin-7-ylamino)pyrimidine-5-carboxamide]"
2,< 200,"NC(=O)c1cnc(N[C@@H]2CCc3cccnc3C2)nc1N[C@@H]1CCC[C@H](O)C1 [Example B-88, 4-((1R,3S)-3-hydroxycyclohexylamino)-2-((R)-5,6,7,8-tetrahydroquinolin-7-ylamino)pyrimidine-5-carboxamide]"
3,< 200,"C[C@@H](Nc1ncc(C(N)=O)c(N[C@@H]2CCC[C@H](O)C2)n1)c1ccc(F)cc1 [Example B-89, 2-((R)-1-(4-fluorophenyl)ethylamino)-4-((1R,3S)-3-hydroxycyclohexylamino)pyrimidine-5-carboxamide]"
4,< 200,"CC(C)Nc1nc(N[C@@H]2CCc3cnccc3C2)ncc1C(N)=O [Example B-92, (R)-4-(isopropylamino)-2-(5,6,7,8-tetrahydroisoquinolin-6-ylamino)pyrimidine-5-carboxamide]"
5,< 200,"C[C@@H]1CC[C@@H](Nc2nc(N[C@H]3CCc4ncccc4C3)ncc2C(N)=O)C[C@H]1O [Example B-93, 4-((1R,3R,4R)-3-hydroxy-4-methylcyclohexylamino)-2-((S)-5,6,7,8-tetrahydroquinolin-6-ylamino)pyrimidine-5-carboxamide]"
6,< 200,"C[C@@H]1CC[C@@H](Nc2nc(N[C@@H]3CCc4ncccc4C3)ncc2C(N)=O)C[C@H]1O [Example B-94, 4-((1R,3R,4R)-3-hydroxy-4-methylcyclohexylamino)-2-((R)-5,6,7,8-tetrahydroquinolin-6-ylamino)pyrimidine-5-carboxamide]"
7,< 200,"NC(=O)c1cnc(N[C@H]2CCc3cnccc3C2)nc1N[C@@H]1CCC[C@H](O)C1 [Example B-95, 4-((1R,3S)-3-hydroxycyclohexylamino)-2-((S)-5,6,7,8-tetrahydroisoquinolin-6-ylamino)pyrimidine-5-carboxamide]"
8,< 200,"NC(=O)c1cnc(N[C@@H]2CCc3cnccc3C2)nc1N[C@@H]1CCC[C@H](O)C1 [Example B-96, 4-((1R,3S)-3-hydroxycyclohexylamino)-2-((R)-5,6,7,8-tetrahydroisoquinolin-6-ylamino)pyrimidine-5-carboxamide]"
